For one experiment, the target named is T1, HTR1A (Homo sapiens, UniProt P08908).
T1 construct: purchased Promega (in-house HiBiT-GPCR construct library, NanoBRET)
T1 sequence (P08908 1-422): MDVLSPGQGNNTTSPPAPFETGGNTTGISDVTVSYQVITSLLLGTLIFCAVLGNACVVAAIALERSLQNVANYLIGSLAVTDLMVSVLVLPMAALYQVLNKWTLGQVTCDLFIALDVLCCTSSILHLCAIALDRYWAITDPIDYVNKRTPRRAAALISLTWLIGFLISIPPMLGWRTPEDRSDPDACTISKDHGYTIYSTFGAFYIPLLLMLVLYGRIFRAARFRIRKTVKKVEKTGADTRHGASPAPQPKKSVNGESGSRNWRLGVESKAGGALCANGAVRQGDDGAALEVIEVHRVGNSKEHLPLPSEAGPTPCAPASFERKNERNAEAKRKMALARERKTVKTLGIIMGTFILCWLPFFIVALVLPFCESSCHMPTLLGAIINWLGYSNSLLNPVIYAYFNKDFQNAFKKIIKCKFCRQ
Briefly: NanoBRET screen HiBiT-HTR1A in HEK293. It counts as binding. The conditions noted are these: HTR1A. The procedure: Each tracer candidate was screened across the entire library of HiBiT-GPCR constructs using NanoBRET as the detection modality. As depicted in Figure 4A, the specificity of interactions was evaluated through decrease in BRET due to competitive displacement of a bound tracer by excess parental compound. Each tracer was analyzed for binding to each HiBiT-GPCR fusion in the absence and in the presence of competing parental compound. Briefly, HEK293 cells were transfected with HiBiT-GPCR constructs diluted into promoterless DNA to reduce expression and maximize translocation to the cell surface. Each tracer candidate was then screened at concentrations of 1 μM and 0.1 μM across cells expressing these fusions. Cells were treated for 1.5 h with tracer either alone or in the presence of 20 μM competing parental compound (i.e., control). BRET was measured upon addition of purified LgBiT and subsequent complementation with HiBiT genetically fused to a GPCR. The specificity of interactions was assessed through a decrease in BRET signal due to competitive displacement of the bound tracer. To further gauge the robustness of these interactions, the fold response over the control (i.e., BRETtracer/BRETcontrol) was calculated. We chose a 1.5-fold response, which translates to ≥7-fold signal over noise as the minimal threshold required to score an interaction as positive.
HiBiT-GPCR DNA constructs were diluted in 10 mM Tris pH 8 to a final concentration of 0.01 μg/μL, arrayed in 96-well plates and stored at −20 °C. For transfection, HEK293 cells were suspended in Opti-MEM (without phenol red) supplemented with 2% fetal bovine serum (Seradigm) and 100 units/mL penicillin–streptomycin (Gibco) at a final concentration of 220,000 cells/mL and dispensed into white 96-well plates at 90 μL/well. Subsequent transfections and screens were carried using an Agilent Bravo Automated Liquid Handling Platform. First, the 96-well HiBiT DNA arrays were diluted 25-fold in Opti-MEM (without serum or phenol red) to a final concentration of 0.0004 μg/μL and 20 μL of the diluted DNAs were transferred into new 96-well plates. Next, promoterless carrier DNA (1 μg/μL) was diluted 25-fold (0.04 μg/μL) and then dispensed into the diluted arrays at 20 μL/well. Following brief mixing, Viafect transfection reagent (Promega) diluted 16-fold into Opti-MEM was dispensed into the plates at 40 μL/well. After mixing by pipetting, plates were incubated for 10 min on the pipetting station deck. The DNA-transfection reagent complexes were then added to plates containing cells. To facilitate the screen, 10 μL of DNA-transfection reagent complexes were added in duplicates to the top 4 and bottom 4 rows, resulting in two identical 48-well arrays per plate. Plates with transfected cells were incubated for 18–20 h at 37 °C/5% CO2. A screen of each tracer across the entire library using two different concentrations requires duplicate plates of transfected cells. Depending on the number of tracers being screened, transfections can be scaled up using the same ratios. The next day, for each tracer, four 20× screening solutions in tracer dilution buffer (Promega) were prepared: two duplicates at final concentration of 20 μM and two duplicates at a final concentration of 2 μM. […] The four resulting solutions were diluted 4-fold in Opti-MEM without serum or phenol red to generate 5× solutions (5 µM and 0.5 µM tracer +/− 100 μM competing compound). To screen the library, a BioTek MultiFlo FX liquid dispenser was used to dispense 22.5 µL of tracer solution to the top 4 rows and 22.5 µL tracer + competing compound solution to the 4 bottom rows. Plates were briefly mixed on an orbital shaker and incubated for 1.5 h at room temperature. […] Plates were briefly mixed on an orbital shaker and incubated for 15 min to allow complementation.
(In general: In BRET a luciferase serves as donor, and the signal depends on an acceptor being close.)

Another experiment concerns the target T2, HTR2A (Homo sapiens, UniProt P28223).
T2 construct: purchased Promega (in-house HiBiT-GPCR construct library, NanoBRET)
Briefly: NanoBRET screen HiBiT-HTR2A in HEK293. It counts as binding. The conditions noted are these: HTR2A.

T2 sequence (P28223 whole entry): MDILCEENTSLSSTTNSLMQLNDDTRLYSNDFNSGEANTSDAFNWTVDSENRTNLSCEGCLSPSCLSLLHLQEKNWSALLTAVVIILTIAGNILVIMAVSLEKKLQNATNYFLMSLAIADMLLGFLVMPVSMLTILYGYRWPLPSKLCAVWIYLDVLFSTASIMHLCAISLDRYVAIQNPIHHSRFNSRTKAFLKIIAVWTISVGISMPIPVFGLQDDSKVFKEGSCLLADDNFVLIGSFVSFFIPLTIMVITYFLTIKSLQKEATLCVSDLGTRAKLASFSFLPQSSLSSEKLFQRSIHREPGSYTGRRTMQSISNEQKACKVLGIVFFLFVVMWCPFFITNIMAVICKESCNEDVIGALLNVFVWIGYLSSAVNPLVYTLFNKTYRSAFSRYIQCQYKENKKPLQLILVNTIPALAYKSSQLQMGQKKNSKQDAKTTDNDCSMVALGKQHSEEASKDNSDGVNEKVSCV

Take `CC(C)N(CC[C@H](c1ccccc1)c1cc(CCNC(=O)c2ccc(CNC(=O)CCc3ccc4n3[B-](F)(F)[N+]3=C(c5ccc[nH]5)C=CC3=C4)cc2)ccc1O)C(C)C` [Tolterodine-BZ-NB590]: the “NanoBRET Fold Response” value on HTR1A (tracer 0.1μM) is reported as 1.03; at HTR1A (tracer 1μM), 1.12; on HTR2A (tracer 0.1μM), 0.93; at HTR2A (tracer 1μM) it was 1.04.
The corresponding values for `CC(C)N(CC[C@H](c1ccccc1)c1cc(CCNC(=O)CCOCCOCCOCCOCCNC(=O)CCc2ccc3n2[B-](F)(F)[N+]2=C(c4ccc[nH]4)C=CC2=C3)ccc1O)C(C)C` [Tolterodine-2-NB590] are 1.14, 1.06, 1.05 and 1.11.
In the same order, the values of `N#CN=C(NCCCOc1cccc(CN2CCCCC2)c1)NCCNC(=O)CCOCCOCCOCCOCCNC(=O)CCc1ccc2n1[B-](F)(F)[N+]1=C(c3ccc[nH]3)C=CC1=C2` [Aminopotentidine-2-NB590] are 1.04, 0.98, 0.98 and 1.02.

The values are drawn from paper PMC8151276, “An Integrated Approach toward NanoBRET Tracers for Analysis of GPCR Ligand Engagement” (Molecules, 2021).
